Patent US20260140118A1, “COMBINATION DRUG” (CHUGAI SEIYAKU KABUSHIKI KAISHA, priority 2022, published 2026)
Read-outs that look alike come from different tables or passages of the source.

Assays:
DTP cells [1] = experiment: Screening test of anticancer agent library (3114 compounds) for growth suppressive action on DTP cells; format: cell-based, human; details: DTP cells from NCI-H2228 treated with alectinib for 13 days
DTP cells [2] = experiment: Cell growth suppression test on DTP cells; format: cell-based, human
Method: (§1) Next, for these nine compounds, a cell growth suppression test was conducted, and the ratio of IC50 of DTP cells with respect to the parental line was calculated.

[3] = system: NCI-H2228 cells (parental cells); experiment: Cell growth suppression test on NCI-H2228 parental cells; format: cell-based, human; details: for IC50: Table 3, nine screening hits; for Sensitivity of NCI-H2228 cells: parental cells
Method: as §1

[4] = system: NCI-H2228 cells (parental cells); experiment: as above; format: cell-based; details: Homo sapiens
[5] = system: SNU-2535 cells excessively expressing FGFR1 and FGF2; experiment: Cell growth and Western blotting in SNU-2535 cells excessively expressing FGFR1 and FGF2; format: cell-based, human; details: as compared to control cells or cells excessively expressing FGF2
From the text: For further confirming that both FGFR1 and FGF2 are necessary for cell survival in ALK inhibitor treatment, FGFR1 and FGF2 were excessively expressed in SNU2535 cells of ALK fusion gene-positive non-small cell lung cancer (NSCLC) (FIG. 7B).
FGFR1, FGF2, or a human coding sequence (CDS) as a control was synthesized, and cloned downstream of an EF1A promoter in a lentivirus vector with VectorBuilder (Chicago, Illinois, USA), and SNU-2535 cells were infected with a lentivirus vector. After 1 day, the culture solution was cultured in a puromycin-containing medium for 4 days, cells excessively expressing FGFR1 and FGF2 were selected, and clones were isolated with Smart Aliquotor. The expression of FGFR1 or FGF2 protein was confirmed by the Western blotting analysis.

[6] = system: FGFR1 or FGF2 knockout cells; experiment: Caspase-Glo 3/7 apoptosis assay and Western blotting in FGFR1 or FGF2 knockout cells; format: cell-based, human
Method: (§2) Using NEPA21 Electroporation, crRNA and Cas9 protein (Nippon Gene Co., Ltd.) targeting FGFR1 or FGF2 (Fasmac) were introduced into cells, two single clones were isolated from each clone cell with Smart Aliquotor (NT Science, Aichi, Japan), and it was confirmed by the Western blotting analysis that FGFR1 or FGF2 knockout cells lost FGFR1 or FGF2 protein (FIG. 5C).
The FGFR1 or FGF2 knockout cells obtained as described above were seeded on a 384-well plate, and on the following day, a drug was added at an indicated concentration, followed by culturing for an indicated time. The caspase 3 and 7 activity to signal induction of apoptosis in cells was measured using Caspase-Glo 3/7 Assay (Promega) in accordance with the protocol from the manufacturer. […] Each point represents an average+standard deviation from three experiments.

FGFR1 knockout cells = experiment: Cell growth test on FGFR1 knockout cells (CRISPR/Cas9); format: cell-based, human; details: two clones
From the text: as §2

FGF2 knockout cells = experiment: Cell growth test on FGF2 knockout cells (CRISPR/Cas9); format: cell-based, human; details: two clones
From the text: as §2

[7] = system: alectinib-resistant NCI-H2228 cells; experiment: Cell growth test on alectinib-resistant NCI-H2228 cells; format: cell-based; details: Homo sapiens
Regrown cells = experiment: Cell growth suppression test on regrown cells; format: cell-based, human; details: DTP cells cultured in alectinib-free medium for 37 days; for IC50: Homo sapiens, Table 4
[8] = system: NCI-H2228 cells (parental cells); details: Western blotting, STAT3, AKT, ERK, S6
Method: (§3) The cells were seeded on a 6-well plate, and on the following day, a drug was added, followed by culturing for a certain time. A Sally Sue or Jess capillary electrophoresis-based protein analysis system (ProteinSimple, Santa Clara, CA, USA) was charged with protein lysates in equal amounts for each of Western blotting methods. As the antibody, antibodies to ALK, phospho-ALK, FGFR1, FGFR2, FGFR3, FGFR4, ERK, phospho-ERK, AKT, phospho-AKT, EGFR, phospho-EGFR, MET, β-actin, phospho-MET, HER2, CD44, BIM, VIM, CDH1, S6, pS6 and STAT3 (Cell Signaling Technology, Danvers, MA, USA), Cleaved PARP, phospho-HER2, FGF2 and FGF12 (Abcam) were used.

DTP cells [9] = details: Western blotting; STAT3, AKT, ERK, S6, FGFR1
Method: as §3

NCI-H2228 tumor = experiment: NCI-H2228 subcutaneous xenograft in nude mice; format: in vivo, mouse; details: oral administration for 11 days
Method: From The Jackson Laboratory Japan, Inc. (Yokohama, Japan), 4 to 5-week-old male BALB/c-nu/nu mice (CAnN Cg-Foxn1/Cr1Cr1j nu/nu) were purchased. Cells were subcutaneously inoculated to the right flank region at 5×10^6 per mouse. The tumor volume and the body weight were measured twice weekly, where the tumor volume was estimated as below. Tumor volume=ab^2/2 (a and b indicate the length and the width of the tumor, respectively. After the establishment of the tumor, the mice were assigned randomly to a solvent administration group, drug administration groups, or a combined administration group identical in dose and schedule to the group receiving each single drug, followed by oral administration for 11 days in a row.

[10] = NCI-H2228, Example 5, read-out: IC50 value, NCI-H2228 cells, FGFR inhibitor alone
[11] = Homo sapiens, Table 3, nine screening hits
[12] = Homo sapiens, NCI-H2228, NCI-H2228
[13] = NCI-H2228, 192 h, Example 4, treated for 8 days, single or in combination, read-out: IC50, NCI-H2228 Parental cells
[14] = NCI-H2228, FIG. 5D, 5E, read-out: IC50 value, parental cells (comparison to knockout cells)
[15] = Table 4, NCI-H2228, read-out: IC50, Parental cells

Structure (SMILES): c1cc(Nc2cc(C3CC3)[nH]n2)nc(Nc2ccc3nc[nH]c3c2)n1 [APY29]
- Anti-proliferative effect on DTP cells (DTP cells [1]): 0.68
- IC50 Ratio of parental to DTP cells (DTP cells [2]; Table 3): 3.8
- IC50 (DTP cells [2]; Table 3, nine screening hits): 445 nM
- IC50 [3]: 1700 nM

Structure (SMILES): COc1cc(CCc2cc(NC(=O)c3ccc(N4C[C@@H](C)N[C@@H](C)C4)cc3)n[nH]2)cc(OC)c1 [AZD4547, N-(5-(3,5-dimethoxyphenethyl)-1H-pyrazol-3-yl)-4-((3S, 5R)-3,5-dimethylpiperazin-1-yl)benzamide]
- IC50 [4, 10]: > 1000 nM

Structure (SMILES): Cc1cc([C@@H](C)Nc2ccccc2C(=O)O)c2nc(N3CCOCC3)cc(=O)n2c1 [AZD6482]
- IC50 (DTP cells [2]; [11]): 4570 nM
- IC50 Ratio of parental to DTP cells (DTP cells [2]; Table 3): 2.2
- IC50 ([3]; Homo sapiens, NCI-H2228): 9870 nM

Structure (SMILES): CN(C)C/C=C/C(=O)Nc1cc2c(Nc3ccc(F)c(Cl)c3)ncnc2cc1O[C@H]1CCOC1 [Afatinib]
- IC50 (DTP cells [2]; [11]): 5020 nM
- IC50 Ratio of parental to DTP cells (DTP cells [2]; Table 3): 1.3
- IC50 ([3]; Homo sapiens, NCI-H2228): 6430 nM

Structure (SMILES): CCc1cc2c(cc1N1CCC(N3CCOCC3)CC1)C(C)(C)c1[nH]c3cc(C#N)ccc3c1C2=O.Cl [Alectinib, 9-ethyl-6,6-dimethyl-8-[4-(morpholin-4-yl)-piperidin-1-yl]-11-oxo-6,11-dihydro-5H-benzo[b]carbazole-3-carbonitrile-hydrochloride]
- Cell growth suppressive effect in cells excessively expressing FGFR1 and FGF2 [5]: decreased
- Suppressive effect on the amount of phosphorylation of ERK in cells excessively expressing FGFR1 and FGF2 [5]: decreased
- Sensitivity of DTP cells (DTP cells [2]): did not exhibit sensitivity
- IC50 (DTP cells [2]; Homo sapiens, NCI-H2228, 312 h): > 1000 nM
- Induction of apoptosis (caspase 3 and 7 activity) in FGFR1 or FGF2 knockout cells as compared to parental cells [6]: enhanced
- Action of inhibiting ERK in FGFR1 or FGF2 knockout cells as compared to parental cells ([6]; Western blotting): enhanced
- IC50 (FGFR1 knockout cells; [12]): 5.4 nM
- IC50 (FGFR1 knockout cells; NCI-H2228): 7.3 nM
- IC50 (FGF2 knockout cells; [12]): 5.6 nM
- IC50 (FGF2 knockout cells; NCI-H2228): 6.1 nM
- IC50 [4, 13]: 220 nM
- IC50 [4, 14]: 220 nM
- IC50 [4, 15]: 220 nM
- IC50 [7]: > 1000 nM
- Sensitivity of regrown cells as compared to DTP cells (Regrown cells): recovered sensitivity
- IC50 (Regrown cells): 480 nM
- Sensitivity of NCI-H2228 cells [3]: exhibited sensitivity

Structure (SMILES): CCN1CCN(c2ccc(Nc3cc(N(C)C(=O)Nc4c(Cl)c(OC)cc(OC)c4Cl)ncn3)cc2)CC1 [BGJ398, N′-(2,6-dichloro-3,5-dimethoxyphenyl)-N-[6-[[4-(4-ethyl-1-piperazinyl)phenyl]amino]-4-pyrimidinyl]-N-methyl-urea]
- Action of inhibiting the phosphorylation of ALK/FGFR1 signal molecules in parental cells [8]: not observed
- Action of inhibiting the phosphorylation of signal molecules in DTP cells (DTP cells [9]): an action of inhibiting the phosphorylation of FGFR1 and phosphorylation of ERK
- Sensitivity of DTP cells (DTP cells [2]): exhibited sensitivity
- IC50 (DTP cells [2]; Homo sapiens, NCI-H2228, 312 h): 57.8 nM
- Tumor growth suppressive effect (NCI-H2228 tumor): did not suppress tumor growth
- IC50 [4, 13]: > 1000 nM
- IC50 [4, 10]: > 1000 nM
- IC50 [4, 15]: > 1000 nM
- IC50 [7]: > 1000 nM
- Sensitivity of regrown cells as compared to DTP cells (Regrown cells): lost sensitivity
- IC50 (Regrown cells): > 1000 nM
- Sensitivity of NCI-H2228 cells [3]: did not exhibit sensitivity

Structure (SMILES): C[C@@H]1C[C@H]2[C@@H]3CCC4=CC(=O)C=C[C@]4(C)[C@@]3(F)[C@@H](O)C[C@]2(C)[C@@]1(O)C(=O)CO [Dexamethasone]
- IC50 (DTP cells [2]; [11]): 1320 nM
- IC50 ([3]; Homo sapiens, NCI-H2228): > 10000 nM

Structure (SMILES): COc1cc(OC)cc(N(CCNC(C)C)c2ccc3ncc(-c4cnn(C)c4)nc3c2)c1 [Erdafitinib, N^1-(3,5-dimethoxyphenyl)-N^2-(1-methylethyl)-N^1-[3-(1-methyl-1H-pyrazol-4-yl)-6-quinoxalinyl]-1,2-ethanediamine]
- Cell growth suppressive effect on DTP cells among the nine compounds (DTP cells [2]; by ratio of IC50): most potent cell growth suppressive effect

Structure (SMILES): C[C@]12CCC(=O)C=C1CC[C@@H]1[C@@H]2[C@@H](O)C[C@@]2(C)[C@H]1CC[C@]2(O)C(=O)CO [Hydrocortisone]
- IC50 (DTP cells [2]; [11]): 2160 nM
- IC50 ([3]; Homo sapiens, NCI-H2228): > 10000 nM

Structure (SMILES): C[C@H]1Oc2cc(cnc2N)-c2c(nn(C)c2C#N)CN(C)C(=O)c2ccc(F)cc21 [Lorlatinib, (10R)-7-amino-12-fluoro-2,10,16-trimethyl-15-oxo-10,15,16,17-tetrahydro-2H-4,8-methanepyrazolo[4,3-h][2,5,11]benzoxadiazacyclotetradecine-3-carbonitrile]
- IC50 (DTP cells [2]; Homo sapiens, NCI-H2228, 312 h): > 1000 nM
- IC50 (FGFR1 knockout cells; [12]): 0.7 nM
- IC50 (FGF2 knockout cells; [12]): 0.7 nM
- IC50 (FGF2 knockout cells; NCI-H2228): 0.9 nM
- IC50 [4, 14]: > 1000 nM
- IC50 [4, 15]: 3.8 nM

Structure (SMILES): COc1cc([C@@H]2c3cc4c(cc3[C@H](O)[C@H]3COC(=O)[C@@H]23)OCO4)cc(OC)c1OC [PPP, picropodophyllin]
- Cell growth suppressive effects in parental cells and DTP cells compared (DTP cells [2]; FIGS. 1A and B): substantially equivalent
- IC50 (DTP cells [2]; Homo sapiens, NCI-H2228, 312 h): 182 nM
- IC50 [4, 15]: 152 nM

Structure (SMILES): C=CC(=O)N1CCC(Oc2cc3c(Nc4ccc(Cl)c(Cl)c4F)ncnc3cc2OC)CC1 [Poziotinib]
- IC50 (DTP cells [2]; [11]): 1390 nM
- IC50 Ratio of parental to DTP cells (DTP cells [2]; Table 3): 2.8
- IC50 ([3]; Homo sapiens, NCI-H2228): 3920 nM

Structure (SMILES): CN(C)C/C=C/C(=O)Nc1ccc(C(=O)N2CCC[C@@H](Nc3ncc(Cl)c(-c4c[nH]c5ccccc45)n3)C2)cc1 [THZ531]
- IC50 (DTP cells [2]; [11]): 154 nM
- IC50 Ratio of parental to DTP cells (DTP cells [2]; Table 3): 1.8
- IC50 ([3]; Homo sapiens, NCI-H2228): 270 nM

Structure (SMILES): C[C@]12C=CC(=O)C=C1CC[C@H]1[C@@H]3C[C@@H](O)[C@](O)(C(=O)CO)[C@@]3(C)C[C@H](O)[C@@]12F [Triamcinolone]
- IC50 (DTP cells [2]; [11]): 1360 nM
- IC50 ([3]; Homo sapiens, NCI-H2228): > 10000 nM
